Measured values reported in US7528253B2, “Compounds having β2 adrenergic receptor agonist and muscarinic receptor antagonist activity” (Theravance, Inc., priority 2004, dated 2009).

How the values were obtained:
[1] = biological target: T1, human β2 adrenergic receptor (Homo sapiens, UniProt P07550); assay: Radioligand binding assay for human β2 adrenergic receptor (Assay Test Procedure A); conditions: displacement of [3H]-dihydroalprenolol, CHO membranes
T1 construct: expressed in transfected cells; membranes prepared
Method: Chinese hamster ovarian (CHO) cell lines stably expressing cloned human β1, β2 or β3 adrenergic receptors, respectively, were grown to near confluency in Hams F-12 media with 10% FBS in the presence of 500 μg/mL Geneticin. The cell monolayer was lifted with 2 mM EDTA in PBS. Cells were pelleted by centrifugation at 1,000 rpm, and cell pellets were either stored frozen at −80° C. or membranes were prepared immediately for use. For preparation of β1 and β2 receptor expressing membranes, cell pellets were re-suspended in lysis buffer (10 mM HEPES/HCl, 10 mM EDTA, pH 7.4 at 4° C.) and homogenized using a tight-fitting Dounce glass homogenizer (30 strokes) on ice. […] The protein concentration of the membrane suspension was determined by the methods described in Lowry et al., 1951, Journal of Biological Chemistry, 193, 265; and Bradford, Analytical Biochemistry, 1976, 72, 248-54. […]
Binding assays were performed in 96-well microtiter plates in a total assay volume of 100 μL with 10-15 μg of membrane protein containing the human β1, β2 or β3 adrenergic receptors in assay buffer (75 mM Tris/HCl pH 7.4 at 25° C., 12.5 mM MgCl2, 1 mM EDTA, 0.2% BSA). […] Non-specific binding was determined in the presence of 10 μM propranolol. […] Filter plates were washed three times with filtration buffer (75 mM Tris/HCl pH 7.4 at 4° C., 12.5 mM MgCl2, 1 mM EDTA) to remove unbound radioactivity. […]

[2] = biological target: T2, M3 muscarinic receptor (hM3) (Homo sapiens, UniProt P20309); assay: Radioligand binding assay for muscarinic receptors (Assay Test Procedure B); conditions: displacement of [3H]-NMS, CHO cell membranes
T2 construct: expressed in transfected cells; membranes prepared
Method: CHO cell lines stably expressing cloned human hM1, hM2, hM3 and hM4 muscarinic receptor subtypes, respectively, were grown to near confluency in HAM's F-12 media supplemented with 10% FBS and 250 μg/mL Geneticin. The cells were grown in a 5% CO2, 37° C. incubator and lifted with 2 mM EDTA in dPBS. Cells were collected by 5 minute centrifugation at 650× g, and cell pellets were either stored frozen at −80° C. or membranes were prepared immediately for use. For membrane preparation, cell pellets were resuspended in lysis buffer and homogenized with a Polytron PT-2100 tissue disrupter (Kinematica AG; 20 seconds×2 bursts). Crude membranes were centrifuged at 40,000× g for 15 minutes at 4° C. […] The protein concentration of the membrane suspension was determined by the method described in Lowry et al., 1951, Journal of Biochemistry, 193, 265. […]
Radioligand binding assays for cloned human muscarinic receptors were performed in 96-well microtiter plates in a total assay volume of 100 μL. […] Filter plates were rinsed three times with wash buffer (10 mM HEPES) to remove unbound radioactivity. […] The plates were then counted in a PerkinElmer Topcount liquid scintillation counter (PerkinElmer Inc., Wellesley, Mass.). Binding data were analyzed by nonlinear regression analysis with the GraphPad Prism Software package (GraphPad Software, Inc., San Diego, Calif.) using the one-site competition model. […]

T2 sequence (P20309 whole entry): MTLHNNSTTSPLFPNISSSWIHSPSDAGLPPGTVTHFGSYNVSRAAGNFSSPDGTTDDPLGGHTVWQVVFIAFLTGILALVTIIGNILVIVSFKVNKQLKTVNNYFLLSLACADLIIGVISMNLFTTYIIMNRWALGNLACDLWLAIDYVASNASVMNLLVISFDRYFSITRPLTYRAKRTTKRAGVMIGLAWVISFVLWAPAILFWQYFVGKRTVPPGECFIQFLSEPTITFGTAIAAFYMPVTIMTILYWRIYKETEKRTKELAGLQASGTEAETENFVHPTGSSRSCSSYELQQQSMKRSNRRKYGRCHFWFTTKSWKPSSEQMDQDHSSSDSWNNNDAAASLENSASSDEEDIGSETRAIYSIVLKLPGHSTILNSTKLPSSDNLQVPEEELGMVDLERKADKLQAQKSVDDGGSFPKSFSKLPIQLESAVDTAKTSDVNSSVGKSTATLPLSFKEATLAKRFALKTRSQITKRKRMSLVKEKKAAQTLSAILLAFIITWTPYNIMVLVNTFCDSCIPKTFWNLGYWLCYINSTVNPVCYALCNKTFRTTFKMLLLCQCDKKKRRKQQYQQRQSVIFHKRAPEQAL
T1 sequence (P07550 whole entry): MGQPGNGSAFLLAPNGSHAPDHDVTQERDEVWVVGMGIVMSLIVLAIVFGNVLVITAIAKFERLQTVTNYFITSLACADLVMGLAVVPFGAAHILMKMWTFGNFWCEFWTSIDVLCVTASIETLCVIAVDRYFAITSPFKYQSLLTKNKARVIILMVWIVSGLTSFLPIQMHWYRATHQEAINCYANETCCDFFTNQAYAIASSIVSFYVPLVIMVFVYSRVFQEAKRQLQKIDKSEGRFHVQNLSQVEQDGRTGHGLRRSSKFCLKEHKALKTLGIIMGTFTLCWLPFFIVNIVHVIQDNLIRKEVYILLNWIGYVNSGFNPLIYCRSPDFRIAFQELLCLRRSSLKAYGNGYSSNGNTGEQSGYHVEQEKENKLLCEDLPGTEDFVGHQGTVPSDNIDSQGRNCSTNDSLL

- Ki [1]: < 0.3 µM
- Ki [2]: < 0.3 µM
Compound: CN(CCCCCCCCCNC[C@H](O)c1ccc(O)c2[nH]c(=O)ccc12)CCC(C)(C)OC(=O)Nc1ccccc1-c1ccccc1 [Example 1, Biphenyl-2-ylcarbamic Acid 3-({9-[(R)-2-Hydroxy-2-(8-hydroxy-2-oxo-1,2-dihydro-quinolin-5-yl)ethylamino]nonyl}methylamino)-1,1-dimethylpropyl Ester]
